# Results as given in PMC11240924, “Isolation, Identification, and Biological Activities of a New Chlorin e6 Derivative” (International Journal of Molecular Sciences, 2024).
# Test: Singlet oxygen photogeneration (DPBF quenching)
# Conditions: 1 µM, DMSO, DPBF 50 μM, 660 nm laser 0.5 J/cm^2
# Procedure: Singlet oxygen photoregeneration was carried out using 1, 3-diphenylisobenzofuran (DPBF) in DMSO. DPBF is a selective ^1O2 acceptor that reacts with ^1O2. The sample solutions of DPBF (50 μM) which contained DPBF only (50 μM, as a control), MB (1, 5, and 10 μM), chlorin e6 (1, 5, and 10 μM), and rhodin g7 7^1-ethyl ester (1, 5, and 10 μM) were prepared under dark conditions. All of the samples were placed in a 96-well plate, which was covered with aluminum foil. The samples were then irradiated (660 nm, 50 mW, 0.5 J/cm^2) for 1 min and 40 s, and after irradiation, the visible spectra of the sample solutions were measured spectrophotometrically. The normalized absorbance of DPBF at 418 nm was measured in these samples. The ^1O2 photo-generation activities of MB, chlorin e6, and rhodin g7 7^1-ethyl ester can be compared with the different absorbance decay of each sample relative to the DPBF control sample.
structure (smiles),measurement,value
"CN(C)c1ccc2nc3ccc(=[N+](C)C)cc-3sc2c1 [MB, Methylene blue, reference compound]",^1O2 generation (DPBF absorbance at 418 nm),22.22%
